Measurements from the supplement of paper PMC8920030.

Key:
Conditions in all cases: growth mode: biofilm, 24 h; exposure time: 24 h
colistin [1] = compound: T1, CCC(C)CCCC(=O)N[C@@H](CCN)C(=O)N[C@H](C(=O)N[C@@H](CCN)C(=O)N[C@H]1CCNC(=O)[C@H]([C@@H](C)O)NC(=O)[C@H](CCN)NC(=O)[C@H](CCN)NC(=O)[C@H](CC(C)C)NC(=O)[C@@H](CC(C)C)NC(=O)[C@H](CCN)NC1=O)[C@@H](C)O [colistin]; experiment: minimum concentration of killing, 1-log CFU reduction of biofilm (MCK90); higher = more biofilm tolerance
Experimental: (§1)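 Clinical P. aeruginosa isolates were grown as static biofilms for 24 h at 37 °C in LB in half-area 96-well plates, then exposed for 24 h to colistin at 1, 4, 16, 64, 256 or […]. Surviving CFU were counted by spotting serial dilutions. MCK is the lowest tested concentration giving the stated log reduction in CFU versus an untreated control; '>1024' means the reduction was not reached at the top dose, and 1 is the lowest dose tested (≤1).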

tobramycin [2] = compound: T2, NC[C@H]1O[C@H](O[C@H]2[C@H](O)[C@@H](O[C@H]3O[C@H](CO)[C@@H](O)[C@H](N)[C@H]3O)[C@H](N)C[C@@H]2N)[C@H](N)C[C@@H]1O [tobramycin]; experiment: minimum concentration of killing, 2-log CFU reduction of biofilm (MCK99); higher = more biofilm tolerance
Experimental: as §1, with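 “tobramycin” for “colistin”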

colistin [3] = compound: T1, colistin; experiment: minimum concentration of killing, 4-log CFU reduction of biofilm (MCK99.99); higher = more biofilm tolerance
Experimental: as §1

tobramycin [4] = compound: T2, tobramycin; experiment: as above
Experimental: as §1, with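 “tobramycin” for “colistin”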

colistin [5] = compound: T1, colistin; experiment: minimum concentration eradicating biofilm below detection limit (MCK-E); higher = more biofilm tolerance
Experimental: as §1

colistin [6] = compound: T1, colistin; experiment: minimum concentration of killing, 2-log CFU reduction of biofilm (MCK99); higher = more biofilm tolerance
Experimental: as §1

tobramycin [7] = compound: T2, tobramycin; experiment: minimum concentration eradicating biofilm below detection limit (MCK-E); higher = more biofilm tolerance
Experimental: as §1, with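 “tobramycin” for “colistin”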

tobramycin [8] = compound: T2, tobramycin; experiment: minimum concentration of killing, 1-log CFU reduction of biofilm (MCK90); higher = more biofilm tolerance
Experimental: as §1, with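 “tobramycin” for “colistin”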

Test System	minimum concentration of killing (colistin [1]) [µg/mL]	minimum concentration of killing (tobramycin [2]) [µg/mL]	minimum concentration of killing (colistin [3]) [µg/mL]	minimum concentration of killing (tobramycin [4]) [µg/mL]	minimum concentration eradicating biofilm below detection limit (colistin [5]) [µg/mL]	minimum concentration of killing (colistin [6]) [µg/mL]	minimum concentration eradicating biofilm below detection limit (tobramycin [7]) [µg/mL]	minimum concentration of killing (tobramycin [8]) [µg/mL]
Pseudomonas aeruginosa clinical isolate CH2522	64	16	256	1020	256	64	1020	16
Pseudomonas aeruginosa clinical isolate CH2527	256	64	256	256	256	256	1020	64
Pseudomonas aeruginosa clinical isolate CH2582	≤ 1	4	256	64	1020	256	64	≤ 1
Pseudomonas aeruginosa clinical isolate CH2597	256	256	256	256	256	256	256	256
Pseudomonas aeruginosa clinical isolate CH2598	256	16	256	256	256	256	256	4
Pseudomonas aeruginosa clinical isolate CH2658	64	16	256	64	256	256	256	4
Pseudomonas aeruginosa clinical isolate CH5531		256		256			1020	16
Pseudomonas aeruginosa clinical isolate CH5548		4		16			64	4
Pseudomonas aeruginosa clinical isolate CH5591		1020		> 1020			> 1020	1020
Pseudomonas aeruginosa clinical isolate ESP057	256		256	256	256	256	256	≤ 1
Pseudomonas aeruginosa clinical isolate F1659	16	16	64	256		64	1020	4
Pseudomonas aeruginosa clinical isolate F1689		4						4
Pseudomonas aeruginosa clinical isolate F1748	256	16	256	16		256	256	4
Pseudomonas aeruginosa clinical isolate F1801	256	4	256	256		256	256	≤ 1
Pseudomonas aeruginosa clinical isolate F1883	16	256	1020		1020	256		64
Pseudomonas aeruginosa clinical isolate F1894	256	16	256		256	256	256	4
Pseudomonas aeruginosa clinical isolate F1997		64		1020			> 1020	16
Pseudomonas aeruginosa clinical isolate F2026	256	256	256	> 1020	256	256	> 1020	
Pseudomonas aeruginosa clinical isolate F2029	256		256	256	256	256	256	
Pseudomonas aeruginosa clinical isolate F2030	64		256	1020	256	256		
Pseudomonas aeruginosa clinical isolate F2034	64		256		256	64		
Pseudomonas aeruginosa clinical isolate F2035	64		256		1020	64		
Pseudomonas aeruginosa clinical isolate F2044					256			
Pseudomonas aeruginosa clinical isolate F2045					> 1020			
Pseudomonas aeruginosa clinical isolate F2059					256			
